Reference: PubChem BioAssay AID588383 (NMMLSC, 2011)
Calls of active or inactive are those of the source.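 Rule for the calls: active = half-effect concentration at most 10 µM with response change of 30% or more and an acceptable curve fit; inactive = the rest.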

Target: GTPase HRas (Homo sapiens) (UniProt P01112)
Assay: Ras wild-type GTP-binding inhibitors, SAR follow-up, selectivity assay for Cdc42 probe extension project, biochemical, multiplex bead flow cytometry, round 1 (AID 588383)
Details: GST-Ras wt beads, Bodipy-FL-GTP binding; for % response, lower = inhibition: at 100 µM (top of the series)

Chain of GTPase HRas (Homo sapiens) (P01112 whole entry, looked up): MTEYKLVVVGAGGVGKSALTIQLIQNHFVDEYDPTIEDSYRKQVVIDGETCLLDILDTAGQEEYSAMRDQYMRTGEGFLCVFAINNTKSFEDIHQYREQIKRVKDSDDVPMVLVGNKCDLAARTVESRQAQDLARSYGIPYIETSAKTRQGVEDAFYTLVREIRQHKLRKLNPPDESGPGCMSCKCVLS

% response, lower = inhibition	EC50	Structure (SMILES)
inactive		NS(=O)(=O)c1ccc(N2N=C(c3ccccc3)CC2c2ccccc2)cc1 (centres undefined)
inactive		O=C(C#Cc1ccccc1)c1cccc([N+](=O)[O-])c1
	78 nM	CC1(C)Cc2c(sc(NC(=S)NC(=O)c3ccccc3)c2C(=O)O)CO1
inactive		COc1ccc(C2CC(c3ccccc3)=NN2c2ccc(S(N)(=O)=O)cc2)cc1 (centres undefined)
